Measurements reported in patent publication US10617654B2, “Use of fenoterol and fenoterol analogues in the treatment of glioblastomas and astrocytomas” (priority 2010, dated 2020).
Where “and” joins values, the source holds several entries; their conditions need not be identical. Identical values can stand only once. Like-named read-outs stand apart in the source and are kept apart here.

Columns and labels:
1321N1 cells [1] = assay: Inhibition of mitogenesis, [3H]-thymidine incorporation in 1321N1 cells; format: cell-based, human
[2] = Brain and plasma analysis of [3H]-(R,R)-methoxyfenoterol after IV administration; format: in vivo, male Sprague-Dawley rats; conditions: 5 mg/kg IV; for Brain, Mean / Percent of Dose in Brain, Mean / Plasma, Mean: three rats; for Brain, Individual / Percent of Dose in Brain, Individual / Plasma, Individual: individual rat
Description: An overview of the research study design for evaluating the brain-to-plasma distribution of [^3H]
(specific activity 57 Ci/mmol); vehicle was sterile saline, 0.9% sodium chloride, USP. Dose formulations were prepared on the day of the study. The amount of radioactivity in the dose formulation was determined by liquid scintillation. The study lasted for an hour and radioactivity levels in plasma and brain tissue were evaluated at the conclusion of the study. Approximately 5 mls of whole blood was collected. Blood samples were collected via cardiac puncture, transferred into a tube containing K3EDTA as the anticoagulant and kept on wet ice until processed to plasma. To generate plasma, samples were centrifuged within 15 minutes of collection at 2,500 RPM for 15 minutes at room temperature. Plasma was divided equally into three labeled cryovials and stored on ample dry ice until transferred to a freezer set at ≤−20° C. for storage until analysis. Duplicate aliquots were weighed and then combined with scintillation cocktail. The [^3H] radioactivity was determined on a liquid scintillation counter. Brain samples were snap frozen in liquid nitrogen and stored at ≤−70° C. until analysis. Whole brain tissue was homogenized and the weight of the homogenate was determined. Duplicate aliquots from the homogenate were weighed, solubilized and then combined with scintillation cocktail. The [^3H] radioactivity was determined on a liquid scintillation counter.

rat cardiomyocyte = assay: Rat cardiomyocyte contractility model; format: cell-based
[3] = for Individual plasma concentration: individual rat; for Individual plasma concentration / Plasma concentration, Average: 5 mg/kg IV
Description: Dose calculations (mg/kg) were based on the individual body weight measured on the day of treatment. Study duration for pharmacokinetic studies was 6 hours. […] Urine was collected for 0-6 hours and 6 to 24 hours from 3 rats in each treatment group.
In the two-compartment model, the drug distributes into two compartments, the central compartment and the tissue, or peripheral compartment. The central compartment represents the blood, extracellular fluid, and highly perfused tissues. The drug distributes rapidly and uniformly in the central compartment. A second compartment, known as the tissue or peripheral compartment, contains tissues in which the drug equilibrates more slowly. Drug transfer between the two compartments is assumed to take place by first-order processes.
The following abbreviations are utilized in Table 4 below: alpha—macro rate constant associated with the distribution phase; beta—macro rate constant associated with the elimination phase; A, B—zero time intercept associated with the alpha phase and beta phase, respectively; AUC—area under the curve; T1/2 (K10)—half-life associated with the rate constant K10; K10—elimination rate—rate at which the drug leaves the system from the central compartment; K12—rate at which drug enters tissue compartment from the central compartment; K21—rate at which drug enters central compartment from tissue compartment; V1—volume of distribution of the central compartment; V2—volume of distribution of the tissue compartment; Vss—volume of distribution at steady state; and Cl—clearance.

1321N1 cells [4] = assay: Cell cycle distribution by flow cytometry in 1321N1 cells; format: cell-based, human
Source text: Untreated cells were used as controls.

[5] = tested on: p27, phospho-Akt, cyclin D1, cyclin A, ERK1/2 in 1321N1 cells; assay: Western blot analysis of G1 arrest proteins in 1321N1 cells; format: cell-based, human
Source text: The ECL Plus Western Blotting Detection System of Amersham Biosciences (Piscataway, N.J.) and the procedure recommended by the manufacturer were used for the detection of antigens. Protein bands were quantified by analyzing the images obtained using an Alphaimager™ S-3400 (Alpha Innotech Corp., San Leandro, Calif.).

β2-AR = β2-AR (Homo sapiens (Human), UniProt P07550); conditions: previously reported; cited from earlier work
[6] = 5 min, listed as [^3H]—(R,R)-methoxyfenoterol
[7] = 60 min, listed as [^3H]—(R,R)-methoxyfenoterol
[8] = rats, 5 mg/kg intravenous, two-compartment open model

Sequence of β2-AR (P07550 whole entry): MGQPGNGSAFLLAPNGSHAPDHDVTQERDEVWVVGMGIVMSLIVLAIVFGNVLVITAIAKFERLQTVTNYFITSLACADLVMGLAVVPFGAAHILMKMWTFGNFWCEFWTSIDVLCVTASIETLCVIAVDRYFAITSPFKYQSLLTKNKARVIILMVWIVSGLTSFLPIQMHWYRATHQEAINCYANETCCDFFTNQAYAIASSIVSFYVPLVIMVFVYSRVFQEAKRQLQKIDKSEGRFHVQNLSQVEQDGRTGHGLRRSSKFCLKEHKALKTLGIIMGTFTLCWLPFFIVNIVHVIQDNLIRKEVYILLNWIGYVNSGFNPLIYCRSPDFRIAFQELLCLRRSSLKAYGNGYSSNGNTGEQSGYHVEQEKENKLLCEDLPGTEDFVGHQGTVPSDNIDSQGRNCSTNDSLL

Compound: Cc1ccc(OCC(O)C(C)NC(C)C)c2c1CCC2 (centres unmarked) [ICI 118-551, reference compound]
- pA2 (1321N1 cells [1]; competitive inhibition of inhibitory effect of (R,R)-fenoterol, 1321N1 cells): 8.9
- slope (pA2 analysis) (1321N1 cells [1]; inhibition of effect of (R,R)-fenoterol, 1321N1 cells): −1.3±0.3

Compound: COc1ccc(C[C@@H](C)NC[C@H](O)c2cc(O)cc(O)c2)cc1.Cl [[^3H]-(R,R)-methoxyfenoterol]
- Brain, Mean ([2]; 5 min): 0.92 μg-equiv/g
- Percent of Dose in Brain, Mean ([2]; 5 min): 0.14%
- Plasma, Mean ([2]; 5 min): 3.25 μg-equiv/ml
- Brain, Mean [2, 6]: 0.92±0.10 μg-equiv/g
- Plasma, Mean [2, 6]: 3.25±0.15 μg-equiv/ml
- Brain, Mean ([2]; 15 min): 0.80 μg-equiv/g
- Percent of Dose in Brain, Mean ([2]; 15 min): 0.12%
- Plasma, Mean ([2]; 15 min): 1.79 μg-equiv/ml
- Brain, Mean ([2]; 30 min): 0.72 μg-equiv/g
- Percent of Dose in Brain, Mean ([2]; 30 min): 0.11%
- Plasma, Mean ([2]; 30 min): 1.53 μg-equiv/ml
- Brain, Mean ([2]; 60 min): 0.70 μg-equiv/g
- Percent of Dose in Brain, Mean ([2]; 60 min): 0.11%
- Plasma, Mean ([2]; 60 min): 1.24 μg-equiv/ml
- Brain, Mean [2, 7]: 0.70±0.37 μg-equiv/g
- Plasma, Mean [2, 7]: 1.24±0.43 μg-equiv/ml
- percent dose found in the brain, any given animal ([2]; over 60 minutes): no more than 0.17%
- decrease of plasma levels ([2]; from 5 minutes to 60 minutes): 62%
- Brain, Individual ([2]; 5 min): 1.00 μg-equiv/g and 0.80 μg-equiv/g and 0.95 μg-equiv/g
- Percent of Dose in Brain, Individual ([2]; 5 min): 0.15% (2×) and 0.12%
- Plasma, Individual ([2]; 5 min): 3.30 μg-equiv/ml and 3.08 μg-equiv/ml and 3.37 μg-equiv/ml
- Brain, Individual ([2]; 15 min): 0.99 μg-equiv/g and 0.36 μg-equiv/g and 1.06 μg-equiv/g
- Percent of Dose in Brain, Individual ([2]; 15 min): 0.15% and 0.06% and 0.16%
- Plasma, Individual ([2]; 15 min): 2.19 μg-equiv/ml and 0.89 μg-equiv/ml and 2.29 μg-equiv/ml
- Brain, Individual ([2]; 30 min): 0.22 μg-equiv/g and 1.00 μg-equiv/g and 0.95 μg-equiv/g
- Percent of Dose in Brain, Individual ([2]; 30 min): 0.03% and 0.15% (2×)
- Plasma, Individual ([2]; 30 min): 0.63 μg-equiv/ml and 1.97 μg-equiv/ml and 2.00 μg-equiv/ml
- Brain, Individual ([2]; 60 min): 0.44 μg-equiv/g and 0.53 μg-equiv/g and 1.12 μg-equiv/g
- Percent of Dose in Brain, Individual ([2]; 60 min): 0.06% and 0.09% and 0.17%
- Plasma, Individual ([2]; 60 min): 0.97 μg-equiv/ml and 1.01 μg-equiv/ml and 1.73 μg-equiv/ml

Compound: C[C@@H](Cc1ccc(O)cc1)NC[C@@H](O)c1cc(O)cc(O)c1 [(S,S)-1, (S,S)-(+)-Fenoterol]
- EC50 (rat cardiomyocyte): 55 µM

Compound: C[C@H](Cc1ccc(O)cc1)NC[C@H](O)c1cc(O)cc(O)c1 [(R,R)-1, (R,R)-(−)-Fenoterol]
- Individual plasma concentration ([3]; 15 min): 0.36 µg/mL
- Individual plasma concentration ([3]; 30 min): 0.17 µg/mL and 0.50 µg/mL
- Individual plasma concentration ([3]; 60 min): 0.05 µg/mL
- Individual plasma concentration ([3]; 120 min): 0.03 µg/mL and 0.01 µg/mL
- Individual plasma concentration ([3]; 300 min): 0.005 µg/mL
- Individual plasma concentration ([3]; 360 min): 0.08 µg/mL and 0.03 µg/mL
- Plasma concentration, Average ([3]; rats, 15 min): 360 ng/mL
- Plasma concentration, Average ([3]; rats, 30 min): 340 ng/mL
- Plasma concentration, Average ([3]; rats, 60 min): 50 ng/mL
- Plasma concentration, Average ([3]; rats, 120 min): 20 ng/mL
- Plasma concentration, Average ([3]; rats, 240 min): 10 ng/mL
- Plasma concentration, Average ([3]; rats, 300 min): 5 ng/mL
- Plasma concentration, Average ([3]; rats, 360 min): 60 ng/mL
- A (zero time intercept, alpha phase) [3, 8]: 1.6300 µg/mL
- AUC [3, 8]: 29.6861 µg·min/mL
- B (zero time intercept, beta phase) [3, 8]: 0.0577 µg/mL
- Cl [3, 8]: 51.54 mL/min
- T1/2 (K10) [3, 8]: 12.19 min
- Vss [3, 8]: 1911.70 mL
- lowest dose arresting the cell cycle (1321N1 cells [4]): 0.1 nM
- phosphorylation of ERK1/2 [5]: only a modest effect
- protein expression of cyclin A [5]: down-regulated
- protein expression of cyclin D1 [5]: down-regulated
- phosphorylation of Akt at Ser-473 ([5]; dose dependent, nanomolar concentrations): inhibited phosphorylation
- protein levels of cyclin-dependent kinase inhibitor p27 ([5]; nanomolar concentrations): significantly increased

Compound: CC(C)NCC(O)c1ccc(O)c2[nH]c(=O)ccc12 (centres unmarked) [Compound 50]
- Ki (β2-AR): 0.17 µM
- Ki β1/Ki β2 (β2-AR): 1.7

Compound: CC[C@H](Cc1ccc(O)cc1)NC[C@H](O)c1cc(O)cc(O)c1 [(R,R)-ethylfenoterol, (R,R)-(−)-ethylfenoterol]
- IC50 (1321N1 cells [1]; Homo sapiens, 1321-N1, read-out: Mitogenesis Inhibition IC50): 0.00144 µM
- EC50 (rat cardiomyocyte): 8.55 µM
